Laboratory results from patent US10421774B2 (priority 2016, dated 2019).

Columns and labels:
Test in all cases: microbe, parasite or virus in culture
Assay type in all cases: cell-based, HIV-1
[1] = test system: T332S/V362I/Pr R41G virus; conditions: Human immunodeficiency virus 1, MT2, read-out: T332S/V362I/pr41G EC50
In short: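 Renilla luciferase NL4-3 reporter virus (Gag P373S background) carrying Gag T332S/V362I plus protease R41G, inoculum normalized by luciferase signal, infected MT-2 cells (10,000/well). Compounds 3-fold diluted, 1% DMSO final. After 4–5 days at 37 °C, virus yield measured as Renilla luciferase activity in a multiple-cycle assay.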

[2] = test system: NLRepRlucP373S recombinant wild type (WT) virus; conditions: Human immunodeficiency virus 1, MT2, read-out: WT EC50
In short: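 MT-2 cells infected with NLRepRlucP373S Renilla luciferase reporter virus (NL4-3, Gag P373S), inocula normalized by luciferase signal; compounds 3-fold serially diluted, 1% DMSO final. Virus yield read by Renilla luciferase after 4-5 days at 37 °C. EC50/EC90 from median effect equation; background = signal at NFV 3 μM.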

gag V370A/ΔT371 virus = conditions: Human immunodeficiency virus 1, MT2, read-out: V370A/ΔT371 EC50
In short: (§1)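 Multiple-cycle assay in MT-2 cells infected with Renilla luciferase NL4-3 (Gag P373S background) carrying site-directed Gag A364V or V370A/ΔT371 changes, inocula normalized by luciferase signal. 10,000 cells/well, 3-fold compound dilutions, 1% DMSO, 4–5 days at 37°C; yield read as Renilla luciferase.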

[3] = test system: A364V site directed mutant virus; conditions: Human immunodeficiency virus 1, MT2, read-out: A364V EC50
In short: as §1

| SMILES | EC50 [1] [nM] | EC50 [2] [nM] | EC50 (gag V370A/ΔT371 virus) [nM] | EC50 [3] [nM] |
| --- | --- | --- | --- | --- |
| C=C(C)[C@@H]1CC[C@]2(NC[C@@H](O)C(=O)O)CC[C@]3(C)[C@H](CC[C@@H]4[C@@]5(C)CC=C(C6=CC[C@](COc7ncccc7C(=O)O)(C(=O)O)CC6)C(C)(C)[C@@H]5CC[C@]43C)[C@@H]12 [Example A16, 2-(((R)-1-carboxy-4-((1R,3aS,5aR,5bR,7aR,11aS,11bR,13aR,13bR)-3a-(((R)-2-carboxy-2-hydroxyethyl)amino)-5a,5b,8,8,11a-pentamethyl-1-(prop-1-en-2-yl)-2,3,3a,4,5,5a,5b,6,7,7a,8,11,11a,11b,12,13,13a,13b-octadecahydro-1H-cyclopenta[a]chrysen-9-yl)cyclohex-3-en-1-yl)methoxy)nicotinic acid] | 68 | 10 | 68 | 139 |
| C=C(C)[C@@H]1CC[C@]2(NC[C@H](O)C(=O)O)CC[C@]3(C)[C@H](CC[C@@H]4[C@@]5(C)CC=C(C6=CC[C@](COc7ncccc7C#N)(C(=O)O)CC6)C(C)(C)[C@@H]5CC[C@]43C)[C@@H]12 [Example A17, (R)-4-((1R,3aS,5aR,5bR,7aR,11aS,11bR,13aR,13bR)-3a-(((S)-2-carboxy-2-hydroxyethyl)amino)-5a,5b,8,8,11a-pentamethyl-1-(prop-1-en-2-yl)-2,3,3a,4,5,5a,5b,6,7,7a,8,11,11a,11b,12,13,13a,13b-octadecahydro-1H-cyclopenta[a]chrysen-9-yl)-1-(((3-cyanopyridin-2-yl)oxy)methyl)cyclohex-3-enecarboxylic acid] | 15 | 3 | 15 | 3000 |
| C=C(C)[C@@H]1CC[C@]2(NC[C@H](O)C(=O)O)CC[C@]3(C)[C@H](CC[C@@H]4[C@@]5(C)CC=C(C6=CC[C@](COc7ncccc7C(N)=O)(C(=O)O)CC6)C(C)(C)[C@@H]5CC[C@]43C)[C@@H]12 [Example A18] | 27 | 8 | 27 | 192 |
| C=C(C)[C@@H]1CC[C@]2(NCC(C)(O)C(=O)O)CC[C@]3(C)[C@H](CC[C@@H]4[C@@]5(C)CC=C(C6=CC[C@](COc7ncccc7C#N)(C(=O)O)CC6)C(C)(C)[C@@H]5CC[C@]43C)[C@@H]12 (stereo partly drawn) [Example A19, (1R)-4-((1R,3aS,5aR,5bR,7aR,11aS,11bR,13aR,13bR)-3a-((2-carboxy-2-hydroxypropyl)amino)-5a,5b,8,8,11a-pentamethyl-1-(prop-1-en-2-yl)-2,3,3a,4,5,5a,5b,6,7,7a,8,11,11a,11b,12,13,13a,13b-octadecahydro-1H-cyclopenta[a]chrysen-9-yl)-1-(((3-cyanopyridin-2-yl)oxy)methyl)cyclohex-3-enecarboxylic acid] | 20 | 3 | 20 | > 50 |
| C=C(C)[C@@H]1CC[C@]2(NCCN3CCS(=O)(=O)CC3)CC[C@]3(C)[C@H](CC[C@@H]4[C@@]5(C)CC=C(C6=CCC(CCOc7ccccn7)(C(=O)O)CC6)C(C)(C)[C@@H]5CC[C@]43C)[C@@H]12 (stereo partly drawn) [Example A20, 4-((1R,3aS,5aR,5bR,7aR,11aS,11bR,13aR,13bR)-3a-((2-(1,1-dioxidothiomorpholino)ethyl)amino)-5a,5b,8,8,11a-pentamethyl-1-(prop-1-en-2-yl)-2,3,3a,4,5,5a,5b,6,7,7a,8,11,11a,11b,12,13,13a,13b-octadecahydro-1H-cyclopenta[a]chrysen-9-yl)-1-(2-(pyridin-2-yloxy)ethyl)cyclohex-3-ene-1-carboxylic acid] | < 50 | < 50 | < 50 | < 50 |
| C=C(C)[C@@H]1CC[C@]2(NCCN3CCS(=O)(=O)CC3)CC[C@]3(C)[C@H](CC[C@@H]4[C@@]5(C)CC=C(C6=CCC(CCOc7cc(C)sn7)(C(=O)O)CC6)C(C)(C)[C@@H]5CC[C@]43C)[C@@H]12 (stereo partly drawn) [Example A21, 4-((1R,3aS,5aR,5bR,7aR,11aS,11bR,13aR,13bR)-3a-((2-(1,1-dioxidothiomorpholino)ethyl)amino)-5a,5b,8,8,11a-pentamethyl-1-(prop-1-en-2-yl)-2,3,3a,4,5,5a,5b,6,7,7a,8,11,11a,11b,12,13,13a,13b-octadecahydro-1H-cyclopenta[a]chrysen-9-yl)-1-(2-((5-methylisothiazol-3-yl)oxy)ethyl)cyclohex-3-ene-1-carboxylic acid] | 18 | 3 | 18 | 17 |
| C=C(C)[C@@H]1CC[C@]2(NCCN3CCS(=O)(=O)CC3)CC[C@]3(C)[C@H](CC[C@@H]4[C@@]5(C)CC=C(C6=CCC(CCOc7ncccc7C#N)(C(=O)O)CC6)C(C)(C)[C@@H]5CC[C@]43C)[C@@H]12 (stereo partly drawn) [Example A22, 1-(2-((3-cyanopyridin-2-yl)oxy)ethyl)-4-((1R,3aS,5aR,5bR,7aR,11aS,11bR,13aR,13bR)-3a-((2-(1,1-dioxidothiomorpholino)ethyl)amino)-5a,5b,8,8,11a-pentamethyl-1-(prop-1-en-2-yl)-2,3,3a,4,5,5a,5b,6,7,7a,8,11,11a,11b,12,13,13a,13b-octadecahydro-1H-cyclopenta[a]chrysen-9-yl)cyclohex-3-ene-1-carboxylic acid] | 13 | 4 | 13 | 27 |
| C=C(C)[C@@H]1CC[C@]2(NCCN3CCS(=O)(=O)CC3)CC[C@]3(C)[C@H](CC[C@@H]4[C@@]5(C)CC=C(C6=CCC(CCOc7cc(C(=O)O)ccn7)(C(=O)O)CC6)C(C)(C)[C@@H]5CC[C@]43C)[C@@H]12 (stereo partly drawn) [Example A23, 2-(2-(1-carboxy-4-((1R,3aS,5aR,5bR,7aR,11aS,11bR,13aR,13bR)-3a-((2-(1,1-dioxidothiomorpholino)ethyl)amino)-5a,5b,8,8,11a-pentamethyl-1-(prop-1-en-2-yl)-2,3,3a,4,5,5a,5b,6,7,7a,8,11,11a,11b,12,13,13a,13b-octadecahydro-1H-cyclopenta[a]chrysen-9-yl)cyclohex-3-en-1-yl)ethoxy)isonicotinic acid] | 193 | 7 | > 50 | 333 |
| C=C(C)[C@@H]1CC[C@]2(NCCN3CCS(=O)(=O)CC3)CC[C@]3(C)[C@H](CC[C@@H]4[C@@]5(C)CC=C(C6=CCC(CCOc7cc(C#N)ccn7)(C(=O)O)CC6)C(C)(C)[C@@H]5CC[C@]43C)[C@@H]12 (stereo partly drawn) [Example A24, 1-(2-((4-cyanopyridin-2-yl)oxy)ethyl)-4-((1R,3aS,5aR,5bR,7aR,11aS,11bR,13aR,13bR)-3a-((2-(1,1-dioxidothiomorpholino)ethyl)amino)-5a,5b,8,8,11a-pentamethyl-1-(prop-1-en-2-yl)-2,3,3a,4,5,5a,5b,6,7,7a,8,11,11a,11b,12,13,13a,13b-octadecahydro-1H-cyclopenta[a]chrysen-9-yl)cyclohex-3-ene-1-carboxylic acid] | 3000 | 1 | 3000 | 7 |
